Assay [1] addresses T1, α1B-AR (Mesocricetus auratus, UniProt P18841).
T1 construct: expressed in transfected cells; host or cells: COS-1
T1 sequence (P18841 1-515): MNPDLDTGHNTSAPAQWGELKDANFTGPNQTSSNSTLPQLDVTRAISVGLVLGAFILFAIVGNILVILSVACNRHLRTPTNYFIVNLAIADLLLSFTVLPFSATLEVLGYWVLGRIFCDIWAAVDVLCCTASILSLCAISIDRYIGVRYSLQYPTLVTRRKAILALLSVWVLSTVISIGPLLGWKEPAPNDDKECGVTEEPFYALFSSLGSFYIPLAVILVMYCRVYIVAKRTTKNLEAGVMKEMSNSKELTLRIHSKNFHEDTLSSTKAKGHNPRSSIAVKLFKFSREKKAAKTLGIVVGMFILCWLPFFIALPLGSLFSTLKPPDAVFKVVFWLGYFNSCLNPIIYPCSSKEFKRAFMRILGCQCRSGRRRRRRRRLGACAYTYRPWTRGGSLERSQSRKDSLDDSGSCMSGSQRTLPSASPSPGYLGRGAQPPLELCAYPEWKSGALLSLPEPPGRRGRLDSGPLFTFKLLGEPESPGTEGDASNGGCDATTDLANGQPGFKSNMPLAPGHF
Kind of assay: [3H]Prazosin competition/saturation binding on COS-1 membranes expressing α1B-AR. The arrangement: species or system rodent. On the procedure:
(§1) COS-1 cells (American Type Culture Collection, Manassas, VA) were cultured in Dulbecco's modified Eagle's medium (DMEM) supplemented with 10% (v/v) heat inactivated fetal bovine serum (FBS), 100 µg ml^−1 penicillin and 100 µg ml^−1 streptomycin. Cells were maintained and passaged upon reaching confluence by standard cell culture techniques. pMT4 plasmids containing rodent α1-AR (a kind gift from Prof R Graham, Victor Chang Cardiac Research Institute, Australia) were used to transfect cells. Transient expression in COS-1 cells was accomplished using two techniques; the diethylaminoethane-dextran (DEAE-dextran) and Lipofectamine 2000 (Invitrogen, Carlsbad, CA, USA) methods. Briefly, the DEAE-dextran method involved washing of cells with phosphate buffered saline (PBS), followed by the addition of the DNA mixture (12–25 µg/4×10^6 cells) in DEAE-dextran (10 mg ml^−1) to cells at 60–80% confluency. Following a 3 h incubation, a PBS wash with 10% DMSO was used to shock the cells. Cells were harvested 72 h post transfection. For the Lipofectamine 2000 method, cells were incubated for 12 h with Opti-MEM (GIBCO BRL, Gaithersburg, MD, USA) containing Lipofectamine 2000.
(§2) Membranes were prepared as described previously. Briefly, COS-1 cells were transiently transfected using the DEAE-dextran method. […] Protein concentration was determined using Bradford reagent (Sigma, St Louis, MO, USA).
(§3) For all binding experiments, the reaction mixture was incubated for 1 h at room temperature, stopped by the addition of 4°C PBS and filtered with a Brandel cell harvester (Gaithersburg, MD, USA) on GF/C filters. Nonspecific binding was defined as binding in the presence of 100 µM phentolamine hydrochloride.
(§4) Nonlinear regression analysis of saturation and competition binding assay data was performed using the […] curve fitting program GraphPad Prism (San Diego, CA, USA). […] The competitive binding data for each ligand was tested for both one and two -site binding.

In assay [2] the target is T2, α1A-AR (Rattus norvegicus, UniProt P43140).
T2 construct: expressed in transfected cells; host or cells: COS-1
T2 sequence (P43140 1-466): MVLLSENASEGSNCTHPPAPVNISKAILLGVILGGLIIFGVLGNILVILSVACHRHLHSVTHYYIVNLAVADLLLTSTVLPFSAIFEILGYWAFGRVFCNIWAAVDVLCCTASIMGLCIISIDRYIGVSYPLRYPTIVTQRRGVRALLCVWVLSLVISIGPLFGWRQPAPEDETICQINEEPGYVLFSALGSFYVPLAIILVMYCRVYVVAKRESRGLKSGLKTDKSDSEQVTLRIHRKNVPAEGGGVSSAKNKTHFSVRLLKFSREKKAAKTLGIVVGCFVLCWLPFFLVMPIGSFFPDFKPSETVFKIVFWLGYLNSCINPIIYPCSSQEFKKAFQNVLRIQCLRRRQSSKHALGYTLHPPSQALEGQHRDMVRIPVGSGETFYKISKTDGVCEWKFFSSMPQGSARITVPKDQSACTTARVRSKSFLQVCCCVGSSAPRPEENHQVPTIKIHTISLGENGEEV
Kind of assay: [3H]Prazosin competition/saturation binding on COS-1 membranes expressing α1A-AR. The arrangement: species or system rodent. To be noted: for Ki: [3H]Prazosin 200 pM, COS-1 membranes. On the procedure:
as §1, §2, §3, §4

Assay [3] has as its target T3, α1D-AR (Rattus norvegicus, UniProt P23944).
T3 construct: expressed in transfected cells; host or cells: COS-1
T3 sequence (P23944 1-561): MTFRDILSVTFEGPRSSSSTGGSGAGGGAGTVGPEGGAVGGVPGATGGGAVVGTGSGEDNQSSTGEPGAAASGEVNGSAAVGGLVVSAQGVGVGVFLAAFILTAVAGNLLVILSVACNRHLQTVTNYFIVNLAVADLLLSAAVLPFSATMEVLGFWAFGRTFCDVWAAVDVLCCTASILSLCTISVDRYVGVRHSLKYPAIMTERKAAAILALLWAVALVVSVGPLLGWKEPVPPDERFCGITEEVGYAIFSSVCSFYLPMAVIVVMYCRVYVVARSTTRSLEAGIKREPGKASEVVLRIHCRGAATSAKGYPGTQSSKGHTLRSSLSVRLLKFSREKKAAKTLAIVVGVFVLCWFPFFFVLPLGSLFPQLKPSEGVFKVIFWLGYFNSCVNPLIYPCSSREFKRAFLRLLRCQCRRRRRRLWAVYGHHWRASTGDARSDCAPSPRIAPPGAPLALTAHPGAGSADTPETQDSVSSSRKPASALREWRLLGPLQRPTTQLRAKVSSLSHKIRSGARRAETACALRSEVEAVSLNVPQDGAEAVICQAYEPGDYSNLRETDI
Kind of assay: Phosphatidylinositol hydrolysis (IP accumulation) assay in COS-1 cells expressing α1D-AR. Particulars: 100 µM compound alone, agonist screen, n = 3. Format: cell-based, rodent. On the procedure:
as §1, with “For the Lipofectamine 2000 method, cells were incubated for 12 h with Opti-MEM (GIBCO BRL, Gaithersburg, MD, USA) containing Lipofectamine 2000.” left out
Accumulation of [^3H] inositol phosphates (IPs) was determined as described previously. […] 200 µL of eluted sample was diluted with 1 mL reverse osmosis water and 5 mL Ultimaflow scintillation fluid (Perkin Elmer), and were counted in a liquid scintillation counter. […]

Where [4] appears, read: [3H]Prazosin 200 pM, COS-1 membranes, antilog of mean pKi, Cheng-Prusoff, read-out: Ki α1B-AR.
Where [5] appears, read: [3H]Prazosin 200 pM, COS-1 membranes, pKi = -Log Ki, read-out: pKi α1B-AR (converted).
[6] abbreviates: antilog of mean pKi, Cheng-Prusoff, read-out: Ki α1A-AR.
The mark [7] stands for this setting: pKi = -Log Ki, read-out: pKi α1A-AR (converted).

From publication PMC3091868, “A Novel Structural Framework for α1A/D-Adrenoceptor Selective Antagonists Identified Using Subtype Selective Pharmacophores” (PLoS ONE, 2011) come the findings set out here.

Where two headings read alike, the source gives them in different places.

As to `COc1cc2c(cc1OC)C1CC(C)=C(c3ccccc3)CN1CC2` (centres unmarked) [Compound 11], the Ki is 11.8 µM in assay [1] (setting [4]), 11 µM in assay [1] (setting [5]), 2 µM in assay [2] (setting [6]) and 1.78 µM in assay [2] (setting [7]). Moreover, the “selectivity for α1A-AR over α1B-AR” value in assay [2] (from binding affinities) worked out at 7 fold.

For the molecule `Cc1ccc(C)c(N2CCN(CC(O)COC(C)(C)C)CC2)c1` (centres unmarked) [Compound 1], the Ki in assay [1] is less than 2 µM; in assay [1] (setting [4]), 1.42 µM; in assay [2] (Ki α1A-AR, antilog of mean pKi, Cheng-Prusoff), less than 2 µM; in assay [2] (setting [6]), 1.17 µM.

Regarding `CCCCCCCCN(CCCCCCCC)CC(O)c1ccccc1Cl` (centres unmarked) [Compound 8], the Ki is greater than 100 µM in assay [1] (setting [4]), greater than 100 µM in assay [1] (setting [5]), 45.9 µM in assay [2] (setting [6]) and 41.7 µM in assay [2] (setting [7]). Besides, the “IP production, compound alone, compared to control, α1D-AR” value in assay [3] was “distinct trend of increased IP production”.
